Assay results reported in PMC9652956, “The ovipositor cue indole inhibits animal host attraction in Aedes aegypti (Diptera: Culicidae) mosquitoes” (Parasites & Vectors, 2022).

Assays:
[1] = target: T1, AaegOR8 (Aedes aegypti (R)-1-octen-3-ol receptor OR8) (Aedes aegypti, UniProt Q16MN0); assay: two-electrode voltage clamp, Xenopus oocytes; baseline current shift under […] perfusion versus water-injected oocytes; assay type: cell-based
T1 construct: gene GPRor8; with AaegOrco
T1 sequence (Q16MN0 1-422): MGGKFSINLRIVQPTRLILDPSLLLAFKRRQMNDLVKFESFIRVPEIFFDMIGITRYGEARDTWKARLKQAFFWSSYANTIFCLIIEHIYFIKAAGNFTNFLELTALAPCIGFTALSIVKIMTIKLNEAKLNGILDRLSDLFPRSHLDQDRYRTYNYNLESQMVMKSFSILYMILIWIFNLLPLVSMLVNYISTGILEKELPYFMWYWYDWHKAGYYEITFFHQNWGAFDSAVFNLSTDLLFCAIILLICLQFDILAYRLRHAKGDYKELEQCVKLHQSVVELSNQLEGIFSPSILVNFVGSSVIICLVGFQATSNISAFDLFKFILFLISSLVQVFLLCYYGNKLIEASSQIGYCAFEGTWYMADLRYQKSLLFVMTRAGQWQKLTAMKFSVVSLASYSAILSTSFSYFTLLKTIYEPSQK
T1 sequence (Q178U6 1-478 partner): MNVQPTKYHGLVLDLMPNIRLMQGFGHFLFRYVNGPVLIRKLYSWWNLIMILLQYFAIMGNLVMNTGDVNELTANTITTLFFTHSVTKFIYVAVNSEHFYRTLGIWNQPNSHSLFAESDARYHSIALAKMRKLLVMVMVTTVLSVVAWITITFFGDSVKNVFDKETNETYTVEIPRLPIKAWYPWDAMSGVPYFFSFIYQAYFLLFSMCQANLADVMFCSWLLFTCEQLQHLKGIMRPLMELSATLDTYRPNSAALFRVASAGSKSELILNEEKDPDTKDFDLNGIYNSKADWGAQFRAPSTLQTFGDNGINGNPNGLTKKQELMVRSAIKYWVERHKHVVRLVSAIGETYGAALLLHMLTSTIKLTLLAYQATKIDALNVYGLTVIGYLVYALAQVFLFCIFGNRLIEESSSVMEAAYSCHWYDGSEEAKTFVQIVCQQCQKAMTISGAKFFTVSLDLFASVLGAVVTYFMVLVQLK

[2] = target: T1, AaegOR8 (Aedes aegypti (R)-1-octen-3-ol receptor OR8); assay: two-electrode voltage clamp, Xenopus oocytes expressing AaegOR8-Orco; about […] inhibition at […]; not active on Orco alone; assay type: cell-based; settings: read-out: % reduction at 10^-3 M

CCCCN(CCC(=O)OCC)C(C)=O [IR3535]
two-electrode voltage clamp, Xenopus oocytes; baseline current shift under 0.01 [1]: Indole and insect repellents (DEET, IR3535) increased the baseline current state of AaegOR8-Orco-injected oocytes

c1ccc2[nH]ccc2c1 [indole]
inhibition at 1000 µM [2]: ~30%

CCN(CC)C(=O)c1cccc(C)c1 [DEET]
two-electrode voltage clamp, Xenopus oocytes; baseline current shift under 0.01 [1]: Indole and insect repellents (DEET, IR3535) increased the baseline current state of AaegOR8-Orco-injected oocytes
